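Cells were grown in 96-well plates and exposed to each compound for 48 hours at five concentrations; endpoints were interpolated linearly between bracketing concentrations, or set to the highest concentration if not reached. Here, GI50 denotes the concentration required for 50% inhibition of growth.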 Activity calls are given as the source filed them. Rule as the data show it: active = GI50 up to about 1.1 µM and inactive = higher.
Columns and labels:
Experiment in all cases: NCI anticancer screen, dose series, 48 h
786-0 = tested on: 786-0
A498 = tested on: A498
A549 = tested on: A549
ACHN = tested on: ACHN
BT-549 = tested on: BT-549
CAKI-1 = tested on: CAKI-1
CCRF-CEM = tested on: CCRF-CEM
COLO 205 = tested on: COLO 205
DU-145 = tested on: DU-145
EKVX = tested on: EKVX
HCC 2998 = tested on: HCC 2998
HCT-116 = tested on: HCT-116
HCT-15 = tested on: HCT-15
HL-60 = tested on: HL-60
HOP-62 = tested on: HOP-62
HOP-92 = tested on: HOP-92
HT-29 = tested on: HT-29
Hs-578T = tested on: Hs-578T
IGROV-1 = tested on: IGROV-1
K562 = tested on: K562
KM12 = tested on: KM12
LOX IMVI = tested on: LOX IMVI
M14 = tested on: M14
MCF7 = tested on: MCF7
MDA-MB-231 = tested on: MDA-MB-231
MDA-MB-435 = tested on: MDA-MB-435
MDA-N = tested on: MDA-N
MOLT-4 = tested on: MOLT-4
Malme-3M = tested on: Malme-3M
NCI-H226 = tested on: NCI-H226
NCI-H23 = tested on: NCI-H23
NCI-H460 = tested on: NCI-H460
NCI-H522 = tested on: NCI-H522
NCI/ADR-RES = tested on: NCI/ADR-RES
OVCAR-3 = tested on: OVCAR-3
OVCAR-4 = tested on: OVCAR-4
OVCAR-5 = tested on: OVCAR-5
OVCAR-8 = tested on: OVCAR-8
PC-3 = tested on: PC-3
RPMI-8226 = tested on: RPMI-8226
RXF 393 = tested on: RXF 393
SF-268 = tested on: SF-268
SF-295 = tested on: SF-295
SF-539 = tested on: SF-539
SK-MEL-28 = tested on: SK-MEL-28
SK-MEL-2 = tested on: SK-MEL-2
SK-MEL-5 = tested on: SK-MEL-5
SN12C = tested on: SN12C
SNB-19 = tested on: SNB-19
SNB-75 = tested on: SNB-75
SR = tested on: SR
SW-620 = tested on: SW-620
T47D = tested on: T47D
TK-10 = tested on: TK-10
U-251 = tested on: U-251
UACC-257 = tested on: UACC-257
UACC-62 = tested on: UACC-62
UO-31 = tested on: UO-31

With `CC(C)c1cc2c(c(O)c1O)[C@@]1(C)CCCC(C)(C)C1=C(O)C2` the GI50 (786-0) was 2510 nM (inactive), the GI50 (A498) was 1120 nM (active) and the GI50 (A549) was 1660 nM (inactive). For the same compound, the GI50 (ACHN) was 1570 nM (inactive), the GI50 (BT-549) was 1360 nM (inactive) and the GI50 (CAKI-1) was 1050 nM (active). For the same compound, the GI50 (CCRF-CEM) was 822 nM (active), the GI50 (COLO 205) was 2840 nM (inactive) and the GI50 (DU-145) was 3030 nM (inactive). The GI50 (EKVX) was 1370 nM (inactive), the GI50 (HCC 2998) was 1010 nM (active) and the GI50 (HCT-116) was 2270 nM (inactive). The GI50 (HCT-15) was 1680 nM, the GI50 (HL-60) was 1340 nM (inactive) and the GI50 (HOP-62) was 2780 nM (inactive). For the same compound, the GI50 (HOP-92) was 817 nM (active), the GI50 (HT-29) was 6750 nM (inactive) and the GI50 (Hs-578T) was 1810 nM (inactive). For the same compound, the GI50 (IGROV-1) was 1040 nM (active), the GI50 (K562) was 1600 nM (inactive) and the GI50 (KM12) was 1630 nM (inactive). For the same compound, the GI50 (LOX IMVI) was 1210 nM (inactive), the GI50 (M14) was 2360 nM (inactive) and the GI50 (MCF7) was 982 nM (active). The GI50 (MDA-MB-231) was > 50000 nM (inactive), the GI50 (MDA-MB-435) was 1230 nM (inactive) and the GI50 (MDA-N) was 1770 nM (inactive). The GI50 (MOLT-4) was 1400 nM (inactive), the GI50 (Malme-3M) was 1260 nM (inactive) and the GI50 (NCI-H226) was > 50000 nM (inactive). The GI50 (NCI-H23) was 1540 nM (inactive), the GI50 (NCI-H460) was 1510 nM (inactive) and the GI50 (NCI-H522) was 1150 nM (inactive). For the same compound, the GI50 (NCI/ADR-RES) was 809 nM (active), the GI50 (OVCAR-3) was 1380 nM (inactive) and the GI50 (OVCAR-4) was 1290 nM (inactive). For the same compound, the GI50 (OVCAR-5) was 1830 nM (inactive), the GI50 (OVCAR-8) was 1540 nM (inactive) and the GI50 (PC-3) was 1190 nM (inactive). The GI50 (RPMI-8226) was 946 nM (active), the GI50 (RXF 393) was 964 nM (active) and the GI50 (SF-268) was 1500 nM (inactive). The GI50 (SF-295) was 1530 nM (inactive), the GI50 (SF-539) was 726 nM (active) and the GI50 (SK-MEL-28) was 1840 nM (inactive). The GI50 (SK-MEL-2) was 968 nM (active), the GI50 (SK-MEL-5) was 1030 nM (active) and the GI50 (SN12C) was 20900 nM (inactive). The GI50 (SNB-19) was 2420 nM (inactive), the GI50 (SNB-75) was 984 nM (active) and the GI50 (SR) was 1700 nM (inactive). For the same compound, the GI50 (SW-620) was 1460 nM (inactive), the GI50 (T47D) was 2040 nM (inactive) and the GI50 (TK-10) was 1910 nM (inactive). For the same compound, the GI50 (U-251) was 1510 nM (inactive), the GI50 (UACC-257) was 1130 nM (inactive) and the GI50 (UACC-62) was 31800 nM (inactive). The GI50 (UO-31) was 1360 nM (inactive).
